Data on 50 molecules can be found in ChEMBL document CHEMBL1201862, “PubChem BioAssay data set” (2004).

Calls of active or inactive are those of the source. A value given as a limit tells only on which side of the number the result lay.

In general, AC50 refers to the concentration at which the activity in the assay is half-maximal.

In one data set the target is Cytochrome P450 2C19 (Homo sapiens, UniProt P33261). Kind of data set: Cytochrome panel assay with activity outcomes. Panel member name: p450-cyp2c19 Compounds with AC50 equal or less than 10 uM are considered active. It is filed as functional.
Another data set concerns the target Cytochrome P450 2C9 (Homo sapiens, UniProt P11712).
The nature of data set [1]: inhibitors of intracellular T. cruzi replication, confirmation, NIH3T3 host cells, beta-gal luminescence (AID 2044).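 Also: intracellular parasites grown in NIH/3T3 mouse fibroblasts as host cells; luminescent beta-galactosidase reporter signal from transgenic T. cruzi replicating inside host cells; inhibitors lower the luminescence signal.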 It is filed as functional, cell-based.
Data set [2] can be described thus: cytotoxicity toward NIH3T3 fibroblasts, dose response, counter-screen, cell-based, ATP luminescence, mouse fibroblasts (AID 2010).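 Also: cells exposed to compound for about 90 hours before reading.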 It is filed as functional. For orientation: A counterscreen serves to expose hits that act by an unwanted route or on another target.
Data set [3] concerns Streptococcus sp. 'group A'. The data set is described as follows: growth inhibition of control SK(-) GAS strain, dose response, counter-screen for streptokinase expression inhibitor project, luminescence, kanamycin, BacTiterGlo, confirmation (AID 1900). It is filed as functional, organism-based.
The subject of a further data set is Streptococcus. The data set is described as follows: Group A Streptococcus viability loss, dose response, counter-screen for streptokinase expression inhibitor project, luminescence, BacTiterGlo (AID 1915).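 Also: potency for reduction of bacterial viability or growth.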 It is filed as functional, organism-based.
A further data set concerns the target Cytochrome P450 2D6 (Homo sapiens, UniProt P10635).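 Also: CYP2D6 member of a cytochrome P450 panel assay.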
Another data set deals with T1, Cytochrome P450 1A2 (Homo sapiens, UniProt P05177).
T1 sequence (P05177 whole entry): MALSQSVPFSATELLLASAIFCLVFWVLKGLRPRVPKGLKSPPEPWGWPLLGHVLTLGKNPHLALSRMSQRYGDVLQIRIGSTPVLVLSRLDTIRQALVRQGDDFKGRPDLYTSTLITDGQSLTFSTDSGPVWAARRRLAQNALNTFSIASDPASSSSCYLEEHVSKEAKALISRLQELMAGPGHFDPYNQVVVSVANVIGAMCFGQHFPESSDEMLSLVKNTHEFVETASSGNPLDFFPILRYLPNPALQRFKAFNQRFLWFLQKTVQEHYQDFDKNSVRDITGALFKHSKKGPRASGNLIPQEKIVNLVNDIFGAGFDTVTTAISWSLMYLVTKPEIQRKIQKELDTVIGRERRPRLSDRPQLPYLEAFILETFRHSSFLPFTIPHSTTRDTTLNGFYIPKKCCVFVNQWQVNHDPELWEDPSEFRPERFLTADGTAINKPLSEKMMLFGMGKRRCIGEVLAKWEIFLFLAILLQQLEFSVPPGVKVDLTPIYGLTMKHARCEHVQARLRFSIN

Data set [4] addresses T2, Corticotropin-releasing factor receptor 2/Corticotropin-releasing factor-binding protein (Homo sapiens, UniProt P24387+Q13324).
T2 sequence (Q13324 whole entry): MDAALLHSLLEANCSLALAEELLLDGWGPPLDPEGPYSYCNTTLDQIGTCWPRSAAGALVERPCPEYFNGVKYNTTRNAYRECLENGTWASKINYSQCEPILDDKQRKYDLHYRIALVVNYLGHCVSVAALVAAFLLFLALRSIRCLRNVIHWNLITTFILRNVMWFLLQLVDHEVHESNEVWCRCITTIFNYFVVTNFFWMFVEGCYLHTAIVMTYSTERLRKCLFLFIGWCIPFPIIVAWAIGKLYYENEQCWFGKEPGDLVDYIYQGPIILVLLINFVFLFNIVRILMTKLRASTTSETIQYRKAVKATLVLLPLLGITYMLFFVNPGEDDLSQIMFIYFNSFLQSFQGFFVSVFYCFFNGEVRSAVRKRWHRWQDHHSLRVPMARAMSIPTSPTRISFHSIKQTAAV
T2 sequence (P24387 whole entry): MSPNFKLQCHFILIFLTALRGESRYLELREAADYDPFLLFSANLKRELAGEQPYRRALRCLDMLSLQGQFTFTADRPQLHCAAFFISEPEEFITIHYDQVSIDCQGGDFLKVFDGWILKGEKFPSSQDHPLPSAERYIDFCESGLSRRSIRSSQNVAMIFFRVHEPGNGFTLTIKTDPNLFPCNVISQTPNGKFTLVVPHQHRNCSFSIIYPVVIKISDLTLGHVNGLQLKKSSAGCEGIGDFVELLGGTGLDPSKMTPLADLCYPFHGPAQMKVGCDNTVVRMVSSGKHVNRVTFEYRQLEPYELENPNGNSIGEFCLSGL
Kind of data set: activators of CRF receptor 2 with binding protein – uHTS hits, confirmation (AID 602473). It is filed as functional. To be noted: read-out: EC50_Mean.

Chain of Cytochrome P450 2C19 (P33261 whole entry): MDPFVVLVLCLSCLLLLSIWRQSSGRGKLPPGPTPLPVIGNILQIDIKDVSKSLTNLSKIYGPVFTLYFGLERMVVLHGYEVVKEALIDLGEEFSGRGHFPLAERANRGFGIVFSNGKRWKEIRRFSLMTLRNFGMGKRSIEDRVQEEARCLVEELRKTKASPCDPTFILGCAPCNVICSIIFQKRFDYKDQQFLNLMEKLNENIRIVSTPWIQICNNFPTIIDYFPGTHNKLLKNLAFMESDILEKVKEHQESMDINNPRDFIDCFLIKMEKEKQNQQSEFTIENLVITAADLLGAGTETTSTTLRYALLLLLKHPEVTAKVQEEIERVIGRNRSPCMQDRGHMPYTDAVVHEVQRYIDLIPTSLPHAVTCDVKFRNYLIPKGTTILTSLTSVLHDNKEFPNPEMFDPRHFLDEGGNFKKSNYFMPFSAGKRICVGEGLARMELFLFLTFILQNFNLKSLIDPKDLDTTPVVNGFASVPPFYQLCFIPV
Chain of Cytochrome P450 2D6 (P10635 whole entry): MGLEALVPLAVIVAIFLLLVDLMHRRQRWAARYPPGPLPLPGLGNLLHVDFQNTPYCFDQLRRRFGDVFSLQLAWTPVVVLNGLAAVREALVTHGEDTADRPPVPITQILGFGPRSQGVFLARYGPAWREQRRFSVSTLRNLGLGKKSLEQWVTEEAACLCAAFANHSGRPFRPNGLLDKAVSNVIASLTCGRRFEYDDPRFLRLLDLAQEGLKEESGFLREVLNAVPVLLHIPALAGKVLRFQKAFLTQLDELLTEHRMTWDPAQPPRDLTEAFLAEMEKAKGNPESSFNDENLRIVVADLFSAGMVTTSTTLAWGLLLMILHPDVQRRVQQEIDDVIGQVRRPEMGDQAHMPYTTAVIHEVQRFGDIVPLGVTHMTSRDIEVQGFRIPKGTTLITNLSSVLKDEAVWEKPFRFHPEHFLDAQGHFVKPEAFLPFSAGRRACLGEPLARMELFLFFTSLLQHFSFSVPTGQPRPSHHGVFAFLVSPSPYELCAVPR
Chain of Cytochrome P450 2C9 (P11712 whole entry): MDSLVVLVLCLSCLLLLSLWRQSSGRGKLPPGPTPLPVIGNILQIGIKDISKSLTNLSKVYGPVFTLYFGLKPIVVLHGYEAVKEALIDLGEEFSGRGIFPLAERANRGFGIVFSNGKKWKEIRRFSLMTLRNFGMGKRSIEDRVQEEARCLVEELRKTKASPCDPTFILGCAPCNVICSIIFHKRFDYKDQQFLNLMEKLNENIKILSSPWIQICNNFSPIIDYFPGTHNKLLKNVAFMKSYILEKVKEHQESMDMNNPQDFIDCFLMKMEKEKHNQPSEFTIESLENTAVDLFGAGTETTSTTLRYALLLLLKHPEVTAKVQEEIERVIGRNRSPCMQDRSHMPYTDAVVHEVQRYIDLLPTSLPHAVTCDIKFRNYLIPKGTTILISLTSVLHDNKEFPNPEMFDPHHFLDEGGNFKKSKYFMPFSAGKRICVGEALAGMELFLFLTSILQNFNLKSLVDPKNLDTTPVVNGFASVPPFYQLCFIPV

For the molecule `C[C@H](N[C@@H](C)COc1ccccc1)[C@H](O)c1ccc(O)cc1` [ISOXSUPRINE], the AC50 at Cytochrome P450 2C19 (read-out: AC50) is 15.8 µM (inconclusive). `Cn1cc(-c2nc3cncnc3n(-c3ccccc3)c2=O)c2ccccc21`: on Cytochrome P450 2C19 (read-out: AC50), the AC50 was 39.8 µM (inconclusive).

`O=C(CSc1nc2ccccc2s1)c1sc2sc3ccccc3[n+]2c1O`: the AC50 on Cytochrome P450 2C9 is 6.31 µM (inconclusive). Consider `c1ccc(CN2CCCC3(CCCN(Cc4nc(COc5ccccc5)no4)C3)C2)cc1` (configuration not stated), for which the values for the EC50 in data set [1] and in data set [2] were 0.285 µM (active) and > 60 µM (not active), respectively.

As for `O=C(NC(=S)Nc1ccc(CN2CCCCC2)cc1)c1cccc(OCc2ccccc2)c1`, the EC50 in data set [1] was 1.09 µM (active); in data set [2], > 60 µM (not active). Consider `COc1ccc(C(=O)OCC(=O)Nc2nnc(-c3ccccc3)o2)cc1`, for which the EC50 in data set [3] was 5.97 µM (active); in the data set on Streptococcus, 19.2 µM (active). Take `O=[N+]([O-])c1cc(Oc2cccnc2)cc([N+](=O)[O-])c1`: the EC50 in [1] is 0.503 µM (active); in data set [2], > 60 µM (not active). `Cc1ccc(C(=O)NNC(=O)CSc2nnc(-c3ccncc3)n2-c2ccc(C)cc2)cc1`: on Cytochrome P450 2D6, the AC50 is 12.6 µM (inconclusive). As for `COc1cccc(C(=O)NC2CCN(C(=O)N3c4ccccc4Sc4ccccc43)CC2)c1`, the EC50 in data set [1] is 2.23 µM (active); in [2] it was > 60 µM (not active). For the molecule `CN(C)CCCNc1c2c(=O)n(C)c(=O)nc-2n(C)c2ccccc12`, the AC50 on Cytochrome P450 1A2 is 5.01 µM (inconclusive).

`COc1ccccc1CN1CC[C@@]2(CCCN(S(=O)(=O)c3ccccc3)C2)C1`: the AC50 at Cytochrome P450 1A2 is 25.1 µM (inconclusive). Turning to `COCc1c(C(=O)OCC(=O)N2c3ccccc3NC(=O)C2(C)C)oc2ccccc12`, the AC50 was 20 µM (inconclusive) at Cytochrome P450 2C19 (read-out: AC50) and 31.6 µM (inconclusive) on Cytochrome P450 2C9. `Cc1ccc(C(=N)c2ccccc2Cc2cccc3ccccc23)c2ccccc12`: the AC50 at Cytochrome P450 2D6 was 2.51 µM (inconclusive); at Cytochrome P450 1A2 it was 1 µM (inconclusive). `O=C(CCS(=O)(=O)c1cccs1)N1CCN(c2ccc(F)cc2)CC1`: the AC50 at Cytochrome P450 1A2 was 31.6 µM (inconclusive); at Cytochrome P450 2C9, 2.51 µM (inconclusive). With `Cc1cccc(-n2c(SCc3ccc([N+](=O)[O-])cc3)nnc2-c2c[nH]c3ccccc23)c1`, the EC50 was 1.77 µM (active) in data set [1] and > 60 µM (not active) in data set [2]. As for `Oc1ccc(Oc2nc(N3CCOCC3)nc(N3CCOCC3)n2)nn1`, the AC50 at Cytochrome P450 2C19 (read-out: AC50) is 2.82 µM (inconclusive). Turning to `COc1ccc(NC(=O)OC(C)C)cc1`, the results for the AC50 on Cytochrome P450 2C19 (read-out: AC50), at Cytochrome P450 2D6 and on Cytochrome P450 2C9 were 28.2 µM (inconclusive), 35.5 µM (inconclusive) and 14.1 µM (inconclusive), respectively. Regarding `CC(C)c1cc(-c2cc(C(=O)NCc3ccccc3)on2)nc(NCC2CC2)n1`, the EC50 in [4] is 10.2 µM (active). Take `Cc1cc(C)c2nc3c(c([C@H](O)[C@@H]4CCCCN4)c2c1)CC/C3=C/c1ccc(Cl)cc1`: the half-maximal activity concentration (AC50) at Cytochrome P450 2C9 is 1 µM (inconclusive). As for `COC(=O)[C@@]1(Cc2ccccc2)[C@H]2c3cc(C(=O)N4CCCC4)n(Cc4ccc(C(F)(F)F)nc4)c3C[C@H]2CN1C(=O)c1ccccc1`, at Cytochrome P450 2D6, the AC50 was 25.1 µM (inconclusive).

Take `O=C(O)CCC(=O)c1ccc(-c2ccccc2)cc1` [FENBUFEN]: the AC50 on Cytochrome P450 1A2 was 12.6 µM (inconclusive).

Consider `CCOc1ccc(N2C(=O)CS/C2=N/NC(=O)COc2ccc3ccccc3c2)cc1`, for which the values for the AC50 on Cytochrome P450 2D6 and at Cytochrome P450 2C9 were 39.8 µM (inconclusive) and 31.6 µM (inconclusive), respectively. Turning to `CCOC(=O)c1c(-c2ccccc2)csc1NC(=O)/C(C#N)=C\c1ccc(O)c(OC)c1`, in data set [4], the EC50 is 6.49 µM (active). On to `CCC(=O)NC(NC(=O)CC)C(Cl)Cl`, for which, on Cytochrome P450 2C9, the AC50 is 20 µM (inconclusive).

`CCCCN(C)CCCNC(=O)c1ccc2c(c1)N(CC)C(=O)c1ccccc1[S+]2[O-]` (configuration not stated): the EC50 in data set [1] was 0.238 µM (active); in data set [2], > 60 µM (not active).

Take `CCOC(=O)/C(=C\c1ccc([N+](=O)[O-])o1)NC(=O)c1ccccc1`: the EC50 is 0.995 µM (active) in data set [1] and > 60 µM (not active) in data set [2]. Consider `N#Cc1ccc(CN2CCCC3(CCN(C(=O)c4cnccn4)CC3)C2)cc1`, for which the AC50 on Cytochrome P450 2D6 is 10 µM (inconclusive). On to `O=C(Nc1ccncc1)c1cc(S(=O)(=O)N2CCN(c3ccccc3)CC2)ccc1Cl`, for which the EC50 in [1] was 2.56 µM (active); in data set [2] it was > 30 µM (not active). As for `COc1ccccc1/C=C/C(=O)OCCCN(C)C`, the EC50 in [1] was 0.794 µM (active); in [2] it was > 30 µM (not active). With `NC(=NOC(=O)Cc1ccc(-c2ccccc2)cc1)c1cccc([N+](=O)[O-])c1`, the results for the AC50 on Cytochrome P450 2C19 (read-out: AC50) and at Cytochrome P450 2C9 were 2.82 µM (inconclusive) and 10 µM (inconclusive), respectively. Regarding `Cc1ccnc(NC(=O)c2cc([N+](=O)[O-])cc([N+](=O)[O-])c2)c1`, the EC50 in data set [1] was 0.193 µM (active); in data set [2], > 60 µM (not active). Turning to `CCOc1ccc(NS(=O)(=O)c2ccc(C(=O)N3CCCC(C)C3)cc2)cc1` (configuration not stated), the EC50 in data set [4] is 11.1 µM (active). Consider `Cc1ccc(SCc2n[nH]c3c2C(C(C)C)C(C#N)=C(N)O3)cc1` (configuration not stated), for which the AC50 at Cytochrome P450 2D6 was 0.00316 µM (inconclusive).

On to `O=C(COc1ccc2ccccc2c1)N1CCN(CC2CC3C=CC2C3)CC1` (configuration not stated), for which, on Cytochrome P450 1A2, the AC50 is 22.4 µM (inconclusive). Consider `Cc1ccc2c(c1)N(CC(=O)NC1CCC(C)CC1)C(=O)CO2` (configuration not stated), for which the AC50 at Cytochrome P450 2D6 is 14.1 µM (inconclusive). `C=CCN1CCC2(C)c3cc(O)ccc3CC1C2C` (configuration not stated): the EC50 in data set [4] is > 53 µM (inactive).

Regarding `O=C(CN1CCCC1)Nc1ccccc1Sc1ccccc1`, the EC50 in data set [4] is > 53 µM (inactive). On to `Cc1cccc([C@H](C)c2cnc[nH]2)c1C` [DEXMEDETOMIDINE], for which the AC50 at Cytochrome P450 2D6 is 12.6 µM (inconclusive). `O=S(=O)(c1ccccc1)c1cnn2c(C(F)(F)F)cc(-c3ccccc3)nc12`: the AC50 is 39.8 µM (inconclusive) at Cytochrome P450 2C19 (read-out: AC50) and 0.708 µM (inconclusive) at Cytochrome P450 2C9. Consider `COc1c(Cl)cc(-c2noc(C)c2C(=O)NCc2ccc3c(c2)OCO3)cc1Cl`, for which the EC50 in data set [4] was > 53 µM (inactive). Consider `CC(=O)N1CCC(=O)N(C(C)C)c2ccccc21`, for which the AC50 on Cytochrome P450 2C9 is 0.0282 µM (inconclusive). With `Cc1cc(/C=C2\C(=N)N3N=C(S(C)(=O)=O)SC3=NC2=O)c(C)n1Cc1ccccc1`, the EC50 was 4.19 µM (active) in [3] and 21.1 µM (active) in the data set with Streptococcus.

Turning to `CCOC(=O)c1ccc(NC(=O)C2CCCO2)cc1` (configuration not stated), the AC50 at Cytochrome P450 2C19 (read-out: AC50) was 14.1 µM (inconclusive); at Cytochrome P450 2C9, 0.0251 µM (inconclusive).

As to `Cc1cc(SCC(=O)c2ccc(Br)cc2)cc(C)[o+]1`, the AC50 at Cytochrome P450 2C19 (read-out: AC50) is 0.398 µM (inconclusive); at Cytochrome P450 2D6, 3.16 µM (inconclusive). As for `N#CCCn1c(=O)c(-c2ccc(F)cc2)nc2cnc(Oc3cccc(Cl)c3)nc21`, at Cytochrome P450 1A2, the AC50 was 0.501 µM (inconclusive). Regarding `CCN1C(=O)[C@@H]2[C@H]3C(=CC[C@@H]2C1=O)C1(OCCCO1)[C@H]1O[C@@H]1[C@H]3O`, the AC50 on Cytochrome P450 2C9 was 5.01 µM (inconclusive). For the molecule `COc1ccc(C(=O)c2sc(Nc3cccc(OC)c3)c(C(=O)Nc3cccc(C)c3C)c2N)cc1`, the EC50 in data set [4] is > 53 µM (inactive).

For the molecule `CC(=O)SC[C@@H](Cc1ccccc1)C(=O)NCC(=O)OCc1ccccc1` [ECADOTRIL], the AC50 on Cytochrome P450 2C9 was 3.98 µM (inconclusive). Consider `CC(OC(=O)c1ccc(S(=O)(=O)NCc2ccco2)cc1)C(=O)Nc1ccc(Cl)cn1` (configuration not stated), for which the EC50 in data set [4] was 4.62 µM (active). In the case of `CCn1cnc2c(Nc3cccc(Cl)c3)nc(N[C@@H]3CCCC[C@H]3N)nc21`, the AC50 result at Cytochrome P450 2C19 is given as “inconclusive”.
